# Laboratory results published in patent US7736624B2, “Methods and compositions for diagnostic and therapeutic targeting of COX-2” (priority 2006, dated 2010).
# Like-named read-outs stand apart in the source and are kept apart here.
# Experiments:
# ovine COX-1 = target: T1, ovine COX-1 (Ovis aries, UniProt P05979); experiment: IC50 determinations using purified enzymes (TLC assay), COX-1; format: biochemical; conditions: assayed against purified enzymes
# T1 construct: can be purified from ovine seminal vesicles by standard procedures; from tissue; host or cells: ovine seminal vesicles
# T1 sequence (P05979 25-600): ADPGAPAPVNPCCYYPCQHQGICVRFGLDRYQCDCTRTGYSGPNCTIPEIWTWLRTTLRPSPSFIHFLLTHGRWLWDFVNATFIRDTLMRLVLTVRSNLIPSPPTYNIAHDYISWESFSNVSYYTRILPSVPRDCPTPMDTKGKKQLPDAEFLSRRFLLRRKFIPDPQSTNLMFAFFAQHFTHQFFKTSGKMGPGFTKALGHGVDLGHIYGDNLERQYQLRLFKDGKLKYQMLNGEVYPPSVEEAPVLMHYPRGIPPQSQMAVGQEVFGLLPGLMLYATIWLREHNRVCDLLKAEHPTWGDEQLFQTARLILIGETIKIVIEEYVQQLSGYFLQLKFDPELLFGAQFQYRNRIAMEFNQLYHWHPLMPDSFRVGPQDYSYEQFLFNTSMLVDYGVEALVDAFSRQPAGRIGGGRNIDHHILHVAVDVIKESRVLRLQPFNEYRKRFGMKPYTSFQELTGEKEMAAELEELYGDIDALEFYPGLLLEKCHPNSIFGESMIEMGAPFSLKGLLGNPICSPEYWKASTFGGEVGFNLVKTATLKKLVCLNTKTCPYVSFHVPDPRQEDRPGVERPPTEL
# Source text: (§1) Those skilled in the art will appreciate that an evaluation of the selectivity and efficacy of binding of the NSAID derivative to the COX-2 enzyme, e.g., after the derivative is synthesized, can be desirable. […] One example of an in vitro screening method takes advantage of the fact that both human and murine recombinant COX-2 can be expressed and isolated in pure form from an Sf9 cell expression system. […] Alternatively, membrane preparations from outdated human platelets can provide a source of human COX-1. […] The reaction is stopped by the addition of ethanol/methanol/1 M citrate, pH 4.0 (30:4:1). The extracted products are separated by thin layer chromatography (TLC), which allows quantitation of total product formation as well as assessment of product distribution. This assay is useful to define IC50 values for inhibition of either enzyme, and to determine time-dependency of inhibition. It also provides information concerning changes in products formed as a result of inhibition.
# (§2) Reactions were terminated by solvent extraction in Et2O/CH3OH/1 M citrate, pH 4.0 (30:4:1). The phases were separated by centrifugation at 2000 g for 5 minutes and the organic phase was spotted on a 20×20 cm TLC plate (Lieselgel 60, EMD Chemicals, Inc., Gibbstown, N.J., United States of America). The plate was developed in EtOAc/CH2Cl2/glacial AcOH (75:25:1) at 4° C. Radiolabeled prostanoid products were quantitatively determined with a radioactivity scanner available from Bioscan, Inc. (Washington, D.C., United States of America). The percentage of total products observed at different concentrations of the presently disclosed compositions was divided by the percentage of products observed for protein samples preincubated for the same amount of time with DMSO.
# COX-1 = target: T2, COX-1 (Mus musculus, UniProt P22437); experiment: Macrophage assay (RAW264.7), COX-1; format: cell-based, murine; conditions: Table 3; macrophage assay
# T2 sequence (P22437 1-602): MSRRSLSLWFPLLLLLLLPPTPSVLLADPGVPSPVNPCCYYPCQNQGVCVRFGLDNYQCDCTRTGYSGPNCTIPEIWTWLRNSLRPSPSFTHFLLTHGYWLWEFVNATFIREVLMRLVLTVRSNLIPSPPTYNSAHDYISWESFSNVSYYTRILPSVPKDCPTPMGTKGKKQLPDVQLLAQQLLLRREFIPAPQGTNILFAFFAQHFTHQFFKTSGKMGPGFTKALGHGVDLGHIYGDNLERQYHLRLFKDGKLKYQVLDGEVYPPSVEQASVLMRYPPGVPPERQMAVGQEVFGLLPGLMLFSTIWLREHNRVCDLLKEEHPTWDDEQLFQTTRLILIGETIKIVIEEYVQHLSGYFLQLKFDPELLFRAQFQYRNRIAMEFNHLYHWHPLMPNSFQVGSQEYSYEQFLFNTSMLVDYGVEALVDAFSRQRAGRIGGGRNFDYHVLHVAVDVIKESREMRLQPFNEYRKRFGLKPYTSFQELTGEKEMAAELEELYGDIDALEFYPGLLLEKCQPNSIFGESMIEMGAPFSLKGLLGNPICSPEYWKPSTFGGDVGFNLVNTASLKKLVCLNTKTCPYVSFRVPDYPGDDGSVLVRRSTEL
# Source text: Thus, NSAID derivatives that are identified as potentially useful in the methods described herein can be further tested using, for example, the RAW264.7 murine macrophage cell line. These cells are readily available (for example, from the American Type Culture Collection (ATCC), Manassas, Va., United States of America) and are easily cultured in large numbers. They normally express low levels of COX-1 and very low to undetectable levels of COX-2. Upon exposure to bacterial lipopolysaccharide (LPS), however, COX-2 levels increase dramatically over the ensuing 24 hour period, and the cells produce PGD2 and PGE2 from endogenous arachidonic acid stores (generally, ˜1 nmol/10^7 cells total PG formation). After LPS exposure, the addition of exogenous arachidonic acid results in the formation of additional PGD2 and PGE2 as a result of metabolism by the newly synthesized COX-2.
# This system provides a number of approaches for testing the inhibitory potency of COX-2-selective ligands (e.g., inhibitors). In general, following LPS activation, cells can be treated for 30 minutes with the desired concentrations of candidate derivative(s) in DMSO. ^14C-arachidonic acid can be added, and the cells can be incubated for 15 minutes at 37° C. Product formation can be assessed following extraction and TLC separation of the culture medium. Alternatively, the effects of candidate derivatives on PG synthesis from endogenous arachidonic acid can be assessed by incubating cells with desired concentrations of candidate derivatives 30 minutes prior to LPS exposure. Following a 24-hour incubation, medium can be collected and extracted, and the amount of PGD2 and/or PGE2 can be assayed by gas chromatography-mass spectrometry, liquid chromatography-mass spectrometry, or ELISA.
# Fluorescence in buffer = format: physicochemical; conditions: for Fluor. λem: emission; for Fluor. λex: excitation
# COX-2 = target: T3, COX-2 (Homo sapiens, UniProt P35354); experiment: IC50 determinations using purified enzymes (TLC assay), COX-2; format: biochemical; set-up: made in house; host or cells: Sf9 insect cells; conditions: assayed against purified enzymes, read-out: IC50 COX-2
# T3 sequence (P35354 18-604): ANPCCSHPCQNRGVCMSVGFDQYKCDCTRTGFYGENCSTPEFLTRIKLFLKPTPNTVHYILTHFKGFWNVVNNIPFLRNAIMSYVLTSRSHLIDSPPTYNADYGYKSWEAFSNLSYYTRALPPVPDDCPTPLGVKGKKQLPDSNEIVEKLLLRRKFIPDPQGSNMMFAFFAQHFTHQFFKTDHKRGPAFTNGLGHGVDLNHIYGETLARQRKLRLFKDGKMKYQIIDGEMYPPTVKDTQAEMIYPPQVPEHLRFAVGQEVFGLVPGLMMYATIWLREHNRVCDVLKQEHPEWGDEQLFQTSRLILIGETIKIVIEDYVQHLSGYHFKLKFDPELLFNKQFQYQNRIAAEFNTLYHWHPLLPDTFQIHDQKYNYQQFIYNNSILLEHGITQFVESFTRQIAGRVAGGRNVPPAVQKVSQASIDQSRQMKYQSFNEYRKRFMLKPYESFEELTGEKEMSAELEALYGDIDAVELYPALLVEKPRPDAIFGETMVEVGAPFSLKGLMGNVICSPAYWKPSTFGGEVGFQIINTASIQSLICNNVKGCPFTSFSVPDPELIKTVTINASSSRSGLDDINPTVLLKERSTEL
# Source text: as §1, §2
SMILES,IC50 (ovine COX-1; Table 3),IC50 (COX-1),Fluor. λem (Fluorescence in buffer),Fluor. λex (Fluorescence in buffer),IC50 (COX-2; Table 3),IC50 (ovine COX-1; Table 2),IC50 (COX-2; Table 2)
COc1ccc2c(c1)c(CC(=O)NCCCCNS(=O)(=O)c1cccc3c(N(C)C)cccc13)c(C)n2C(=O)c1ccc(Cl)cc1 [Compound 27z],> 25 µM,> 1 µM,504 nm,324 nm,0.067 µM,,
"CCN(CC)c1ccc2c(-c3ccc(S(=O)(=O)NCCOCCOCCOCCOCCC(=O)NCCCCNC(=O)Cc4c(C)n(C(=O)c5ccc(Cl)cc5)c5ccc(OC)cc45)cc3S(=O)(=O)[O-])c3ccc(=[N+](CC)CC)cc-3oc2c1 [Compound 27iii, 5-(N-(23-(1-(4-chlorobenoyl)-5-methoxy-2-methyl-1H-indol-3-yl)-15,22-dioxo-3,6,9,12-tetraoxa-16,21-diazatricosyl)sulfamoyl)-2-(6-(diethylamino)-3-(diethyliminio)-3H-xanthen-9-yl)benzenesulfonate]",> 25 µM,> 5 µM,,571 nm,0.16 µM,,
COc1ccc2c(c1)c(CC(=O)NCCCNS(=O)(=O)c1cccc3c(N(C)C)cccc13)c(C)n2C(=O)c1ccc(Cl)cc1 [Compound 27y],> 25 µM,> 1 µM,497 nm,343 nm,0.075 µM,,
CCN(CC)c1ccc2c(-c3ccc(S(=O)(=O)NCCOCCOCCOCCOCCC(=O)NCCNC(=O)CCc4cc(-c5ccc(C)cc5)n(-c5ccc(S(N)(=O)=O)cc5)n4)cc3S(=O)(=O)[O-])c3ccc(=[N+](CC)CC)cc-3oc2c1 [Compound 30f],,> 5 µM,,,≥ 25 µM,,
COc1ccc2c(CC(=O)NCCNC(=O)Cc3c(C)n(C(=O)c4ccc(Cl)cc4)c4ccc(OC)cc34)cc(=O)oc2c1 [Compound 27dd],> 25 µM,,,,> 25 µM,,
Cc1ccc(-c2cc(CCC(=O)NCCNC(=O)c3ccc(C(=O)[O-])c(C4=c5cc6c7c(c5Oc5c4cc4c8c5CCCN8CCC4)CCC[N+]=7CCC6)c3)nn2-c2ccc(S(C)(=O)=O)cc2)cc1 [Compound 29h],> 25 µM,,,,> 25 µM,,
COc1ccc2c(c1)c(CC(=O)NCCCN1CCN(CCCNC(=O)c3ccc(C(=O)[O-])c(C4=c5cc6c7c(c5Oc5c4cc4c8c5CCCN8CCC4)CCC[N+]=7CCC6)c3)CC1)c(C)n2C(=O)c1ccc(Cl)cc1 [Compound 27bbb],> 25 µM,,,,> 25 µM,,
CCN1C(=CC=CC=CC2=[N+](CCCCS(=O)(=O)[O-])c3ccc4ccccc4c3C2(C)C)C(C)(C)c2cc(CC(=O)NCCCCNC(=O)Cc3c(C)n(C(=O)c4ccc(Cl)cc4)c4ccc(OC)cc34)ccc21 [Compound 27qqq],> 25 µM,,,,0.5 µM,,
COC(=O)c1cc(-c2ccc(C)cc2)n(-c2ccc(S(C)(=O)=O)cc2)n1 [Compound 29b],,,,,,> 25 µM,2.8 µM
COc1ccc2c(c1)c(CC(=O)NCCNC(=O)/C=C/c1ccc(N(C)C)cc1)c(C)n2C(=O)c1ccc(Cl)cc1 [Compound 27hh],> 25 µM,,,,0.51 µM,,
"COc1ccc2c(c1)c(CC(=O)NCCNC(=O)c1cc3ccccc3oc1=O)c(C)n2C(=O)c1ccc(Cl)cc1 [Compound 27cc, N-{2-(Coumarin-3-carboxylamido)ethyl}-2-{1-(4-chlorobenzoyl)-5-methoxy-2-methyl-1H-indol-3-yl}acetamide]",> 25 µM,> 25 µM,405 nm,340 nm,0.789 µM,,
COc1ccc2c(c1)c(CC(=O)NCCCCNC(=O)c1ccc(C(=O)O)c(-c3c4cc(F)c(=O)cc-4oc4cc(O)c(F)cc34)c1)c(C)n2C(=O)c1ccc(Cl)cc1 [Compound 27mm],22.5 µM,,,,3.2 µM,,
COc1ccc2c(c1)c(CC(=O)NCCN1CCN(C(=O)c3ccc(C(=O)[O-])c(C4=c5cc6c7c(c5Oc5c4cc4c8c5CCCN8CCC4)CCC[N+]=7CCC6)c3)CC1)c(C)n2C(=O)c1ccc(Cl)cc1 [Compound 27ccc],> 25 µM,,,,> 25 µM,,
COc1ccc2c(c1)c(CC(=O)N1CCN(C(=O)c3ccc(C(=O)O)c(-c4c5ccc(=O)cc-5oc5cc(O)ccc45)c3)CC1)c(C)n2C(=O)c1ccc(Cl)cc1 [Compound 27tt],> 25 µM,,,,> 25 µM,,
Cc1ccc(-c2cc(CCC(=O)NCCN)nn2-c2ccc(S(C)(=O)=O)cc2)cc1 [Compound 29f],,,,,,> 25 µM,> 25 µM
Cc1ccc(-c2cc(CCC(=O)NCCNC(=O)c3ccc(C(=O)[O-])c(C4=c5cc6c7c(c5Oc5c4cc4c8c5CCCN8CCC4)CCC[N+]=7CCC6)c3)nn2-c2ccc(S(N)(=O)=O)cc2)cc1 [Compound 30e],> 25 µM,,,,> 25 µM,,
COc1ccc2c(c1)c(CCNC(=O)c1ccc(C(=O)[O-])c(C3=c4cc5c6c(c4Oc4c3cc3c7c4CCCN7CCC3)CCC[N+]=6CCC5)c1)c(C)n2Cc1ccc(Br)cc1 [Compound 28e],> 25 µM,,,,> 25 µM,,
